This is an account of results in PMC11859928, “Design, Synthesis, and Antiproliferative Activity of Novel Indole/1,2,4-Triazole Hybrids as Tubulin Polymerization Inhibitors” (Pharmaceuticals, 2025).

Holding throughout (assay): NCI one-dose assay
For experiment [1], the system named is NCI-H23. The experiment is classed as cell-based. The conditions noted are these: Homo sapiens, NCI-H23, Non-small cell lung cancer, read-out: Cell growth inhibition %.
Experiment [2] deals with PC-3. Format: cell-based. The conditions noted are these: Homo sapiens, PC-3, Prostate cancer, read-out: Cell growth inhibition %.
Experiment [3] has as its system OVCAR-5. Format: cell-based. The settings on record: Homo sapiens, OVCAR-5, Ovarian cancer, read-out: Cell growth inhibition %.
Experiment [4] relates to HCT-116. The experiment is classed as cell-based. The conditions noted are these: Homo sapiens, HCT-116, Colon cancer, read-out: Cell growth inhibition %.
The test system of experiment [5] is OVCAR-3. The experiment is classed as cell-based. The conditions noted are these: Homo sapiens, OVCAR-3, Ovarian cancer, read-out: Cell growth inhibition %.
Experiment [6] concerns SN12C. Format: cell-based. The conditions noted are these: Homo sapiens, Renal cancer, read-out: Cell growth inhibition %.
For experiment [7], the system named is HCT-15. Format: cell-based. The settings on record: Homo sapiens, HCT-15, Colon cancer, read-out: Cell growth inhibition %.
Experiment [8] relates to SF-268. The experiment is classed as cell-based. The conditions noted are these: Homo sapiens, SF-268, CNS cancer, read-out: Cell growth inhibition %.
Experiment [9] deals with SK-MEL-2. The experiment is classed as cell-based. The conditions noted are these: Homo sapiens, SK-MEL-2, Melanoma, read-out: Cell growth inhibition %.
The subject of experiment [10] is EKVX. The experiment is classed as cell-based. The settings on record: Homo sapiens, Non-small cell lung cancer, read-out: Cell growth inhibition %.
The subject of experiment [11] is DU-145. The experiment is classed as cell-based. The settings on record: Homo sapiens, DU-145, Prostate cancer, read-out: Cell growth inhibition %.
In experiment [12] the test system is COLO 205. The experiment is classed as cell-based. The conditions noted are these: Homo sapiens, COLO 205, Colon cancer, read-out: Cell growth inhibition %.
The test system of experiment [13] is HOP-62. Format: cell-based. The settings on record: Homo sapiens, HOP-62, Non-small cell lung cancer, read-out: Cell growth inhibition %.
Experiment [14] relates to MOLT-4. The experiment is classed as cell-based. The settings on record: Homo sapiens, MOLT-4, Leukemia, read-out: Cell growth inhibition %.
Experiment [15] has as its system NCI/ADR-RES. The experiment is classed as cell-based. The conditions noted are these: Homo sapiens, Ovarian cancer, read-out: Cell growth inhibition %.
For experiment [16], the system named is SNB-19. Format: cell-based. The settings on record: Homo sapiens, SNB-19, CNS cancer, read-out: Cell growth inhibition %.
Experiment [17] has as its system CCRF-CEM. Format: cell-based. The settings on record: Homo sapiens, Leukemia, read-out: Cell growth inhibition %.
Experiment [18] deals with LOX IMVI. Format: cell-based. The settings on record: Homo sapiens, Melanoma, read-out: Cell growth inhibition %.
For experiment [19], the system named is SW-620. Format: cell-based. The settings on record: Homo sapiens, SW-620, Colon cancer, read-out: Cell growth inhibition %.
The test system of experiment [20] is A498. The experiment is classed as cell-based, human. The conditions noted are these: Homo sapiens, A498, A498, Renal cancer, read-out: Cell growth inhibition %.
For experiment [21], the system named is 786-0. The experiment is classed as cell-based, human. The conditions noted are these: Homo sapiens, 786-0, 786-0, Renal cancer, read-out: Cell growth inhibition %.
In experiment [22] the test system is UO-31. Format: cell-based, human. The settings on record: Homo sapiens, UO-31, UO-31, Renal cancer, read-out: Cell growth inhibition %.
Experiment [23] has as its system HOP-92. The experiment is classed as cell-based, human. The conditions noted are these: Homo sapiens, HOP-92, HOP-92, Non-small cell lung cancer, read-out: Cell growth inhibition %.

What is called inhibition is the relative decrease from the control value, in per cent.

Regarding `O/N=C(\CSc1nnc(-c2c[nH]c3ccccc23)n1-c1ccccc1)c1ccccc1` [Compound 7f, (Z)-2-((5-(1H-Indol-3-yl)-4-phenyl-4H-1,2,4-triazol-3-yl)thio)-1-phenylethanone Oxime], the inhibition at 10 µM amounted to 45.8% in experiment [1]; 75.9% in experiment [2]; 14.3% in [3]; 60% in experiment [4]; 45% in [5]; 42.6% in experiment [6]. For the same compound, the inhibition at 10 µM was 74.8% in experiment [7]; 23.1% in experiment [8]; 50.8% in [9]; 73.6% in experiment [10]; 40.2% in experiment [11]; 47.1% in experiment [12]. Moreover, the inhibition at 10 µM in [13] turned out to be 15.4%; in [14], 76.1%; in [15], 44.7%; in experiment [16], 48.5%; in [17], 59%; in experiment [18], 59%. The inhibition at 10 µM in [19] was found to be 47.2%; in experiment [20], 14.8%; in [21], 17.9%; in experiment [22] it was 71.6%; in [23], 82.7%.

Consider `COc1ccc(C(=O)CSc2nnc(-c3c[nH]c4ccccc34)n2-c2ccccc2)cc1` [Compound 6g, 2-((5-(1H-Indol-3-yl)-4-phenyl-4H-1,2,4-triazol-3-yl)thio)-1-(4-methoxyphenyl) Ethenone], for which the inhibition at 10 µM is 43.5% in [1]; 49.7% in [2]; 22.6% in experiment [3]; 47.5% in [4]; 46.4% in experiment [5]; 55.6% in experiment [6]. The inhibition at 10 µM was determined as 26.7% in [7]; 59% in [8]; 28% in experiment [9]; 70.7% in [10]; 31.1% in [11]; 15.2% in experiment [12]. In addition, the inhibition at 10 µM in experiment [13] amounted to 91.2%; in experiment [14], 17.9%; in [15], 100%; in experiment [16] it was 70.2%; in experiment [17] it was 17.5%; in experiment [18] it was 56.5%. Besides, the inhibition at 10 µM in [19] was 13.7%; in [20], -11.3%; in experiment [21], 54.8%; in experiment [22], 67.4%; in experiment [23], 92.1%.

For the compound `O=C(CSc1nnc(-c2c[nH]c3ccccc23)n1-c1ccccc1)c1ccc(Cl)cc1` [Compound 6j, 2-((5-(1H-indol-3-yl)-4-phenyl-4H-1,2,4-triazol-3-yl)thio)-1-(4-chlorophenyl) Ethenone], the inhibition at 10 µM worked out at 59.2% in experiment [1]; 39.5% in experiment [2]; 9.28% in [3]; 54.2% in [4]; 26.1% in experiment [5]; 35.4% in experiment [6]. In addition, the inhibition at 10 µM in experiment [7] was 26.7%; in [8], 30.6%; in experiment [9] it was 66.3%; in experiment [10], 74.4%; in experiment [11] it was 11.6%; in experiment [12], 57.4%. In addition, the inhibition at 10 µM in [13] was 53%; in experiment [14], -3.56%; in experiment [15] it was 94.2%; in experiment [16], 60%; in experiment [17], 7.26%; in experiment [18], 84.1%. Also, the inhibition at 10 µM is 29.7% in experiment [19]; 42.7% in [20]; 55.1% in experiment [21]; 45.2% in experiment [22]; 35% in experiment [23].
